In patent US9820968B2, “Anti-leukemic agent useful for inducing differentiation in myeloid leukemia cells” (Council of Scientific and Industrial Research, priority 2013, dated 2017):
Like-named read-outs stand apart in the source and are kept apart here.

Key:
HL60 cells [1] = assay: Morphology after long ORM treatment, HL60 cells; format: cell-based; details: HL60, 1 uM ORM, 12 and 15 days
Method: (§1) FIG. 7: ORM at 1 uM dose induces differentiation like morphology both in HL60 and U937 cells: (a) HL60 and (b) U937 cells were treated with 1 uM ORM for 12 and 15 days and there was change in the morphology of cells by decrease in the nuclear and cytoplasmic ratio and formation of multilobed nuclei which is typical for neutrophilic differentiation.
(§2) 3. Giemsa staining: Giemsa stain is used to differentiate nuclear and cytoplasmic morphology of blood cells. After induction with 1 uM ORM for 12 days cells were cytospun on slides at 800 rpm for 5 min and were air dried. Cells were stained with Giemsa stain (Sigma) as per manufacturer's protocol. Cells were visualized microscopically for the morphological changes.
(§3) Profound granulocytic differentiation inducing property of ormeloxifene in K562 prompted us to investigate if ORM can also induce such differentiation in other myeloid leukemia cell lines. So we further chose HL60 and U937, a promyelocyte and myelomonocyte leukemia cell line. These cells differentiate to granulocyte lineage upon induction with all trans-retinoic acid (ATRA) and represent a very good model cell line for such differentiation assays. These cells were treated with 1 uM ORM for longer duration of 12 and 15 days followed by assessment of granulocytic/neutrophil like morphology.

Salmonella = details: Giri et al., Mutagenesis 1999; cited from earlier work
advanced breast cancer = details: cited from earlier work
[2] = tested on: primary cells isolated from CML patients; assay: FACS for cd11b and cd114 in primary mononuclear cells from CML patients; format: cell-based, human; details: CML patient mononuclear cells, 1 uM ORM, 24 and 48 hr
Method: FIG. 6: ORM induces myeloid differentiation in primary cells isolated from CML patients PBMCs were isolated from patient samples and were analyzed by FACS for cd11b positive cells.
6. PBMC separation from patient sample: 10 ml peripheral blood was collected by venipuncture heparin-containing 20 ml vials. Peripheral blood mononuclear cells were isolated using density gradient centrifugation with Ficoll-Paque (1.077 g/ml). Peripheral blood was mixed in 1:1 v/v of MACS buffer and was fractionated through Ficoll-Paque. Mononuclear cells were collected from the interface, washed twice in MACS buffer and resuspended in RPMI 1640 at 37° C. in the humidified atmosphere of 5% CO2.
7. FACS analysis: Cells were treated with 1 uM ORM for 24 h and 48 h. Then they were washed with 1×PBS and resuspended in antibody solution along with their respective IgG isotype control for 15-20 min as per manufacturer's protocol. Cells were washed once with PBS and were resuspended in 500 ul of PBS. […]
Although recent studies using differentiation therapies in oncology have been successful for acute promyelocytic leukemia (APL) with the use of all-trans retinoic acid (ATRA) (S. Waxman, Leukemia, 2000, 14(3):491-496), little is known about exact mechanisms of differentiation. […] Cells were treated with 1 uM ORM and were analyzed for expression of cd11b and cd114 surface markers after 24 and 48 hr.

K562 cells [3] = assay: FACS flow cytometry for cd11b in K562 cells; format: cell-based; details: 24 and 48 h
Method: 7. FACS analysis: Cells were treated with 1 uM ORM for 24 h and 48 h. Then they were washed with 1×PBS and resuspended in antibody solution along with their respective IgG isotype control for 15-20 min as per manufacturer's protocol. Cells were washed once with PBS and were resuspended in 500 ul of PBS. After this flow cytometry was done for PI labeled cells for cd11b and cd114 differentiation markers (BD Biosciences).
(§4) K562 cells were treated with 1 μM (Subapoptotic dose) and 7.5 μM ORM (Apoptotic dose) for 24 h and 48 hrs. Post 24 h and 48 h treatment, cells were analyzed in FACS-flow cytometer for the presence of myeloid differentiation marker cd11b (FIG. 2). In parallel, HL60 cells were also treated with 1uM All-Trans-Retinoic Acid (ATRA) for 72 hrs which served as control for induction of differentiation. […] Isotype IgG-PE antibody served as negative control.

HEK293T = assay: MTT cell viability assay, HEK293T control; format: cell-based; details: Homo sapiens, HEK-293T, 293T control cells, 48 hrs, read-out: 50% growth inhibitory concentration (IC50)
Method: (§5) 2. MTT assay: Post 6 h synchronization, 1×10^4 cells per well were incubated at 37° C. in 96-well plastic plates with test drugs containing 10% FBS in an environment of 5% humified CO2. After 48 hrs, cell viability was assessed by the ability of metabolically active cells to reduce tetrazolium salt […] to coloured formazan compounds. The absorbance of the samples was measured with a specific enzyme-linked immunosorbent assay (ELISA) reader at 560 nm.
(§6) To calculate 50% growth inhibitory concentration (IC50) of ormeloxifene, various myeloid leukemia cells (U937, HL60, K562) and HEK293T as control were assayed with different doses of ormeloxifene for cell viability in MTT Assay. […] Various apoptosis assays were performed in myeloid leukemia cells upon treatment with ormeloxifene that induces G0-G1 phase growth arrest and caspase mediated apoptosis in myeloid leukemia via ERK activation.

K562 cells [4] = assay: ROS generation by flow cytometry (DCF-DA), K562 cells; format: cell-based; details: K562, 1 uM ORM
Method: FIG. 5: ORM at a dose of 1 uM induces ROS generation: A property of activated neutrophils: Flow cytometry analysis was performed for the ROS generation in K562 cells after treatment with 1 uM ORM for 24 h and 48 h. Cells were labeled with DCF-DA dye and fluorescence was measured.
Furthermore, ORM induces granulocytic differentiation in K562 cells, it should lead to terminal differentiation of these cells to activated neutrophils. To substantiate further the induction of granulocytic differentiation and neutrophil formation, we measured the ROS generation, which is a property of activated neutrophils by FACS flow cytometer.

K562 cells [5] = assay: Giemsa staining morphology, K562 cells; format: cell-based
Method: as §2
To further corroborate the differentiation inducing potential of ORM, K562 cells were again treated with 1.0 uM ORM and vehicle for 12 days followed by cytospin and staining with Giemsa for assessment of morphological changes. […] It is noteworthy to mention here that at higher doses (5 uM to 7.5 uM) there is early onset of myeloid differentiation (72 h for 5 uM and 24,48 h for 7.5 uM) with reduced no. of cells which is likely due to apoptotic effects of ORM at higher dose. In contrary, at lower doses (1 uM) differentiation is observed after longer duration (6-15 days) with quite reduced apoptotic effect.

[6] = tested on: myeloid leukemia cells (U937, HL60, K562); assay: MTT cell viability assay, myeloid leukemia cells; format: cell-based; details: leukemic cells (U937, HL60, K562), read-out: 50% growth inhibitory concentration (IC50)
Method: FIG. 1: ORM induces cell toxicity in myeloid leukemia cells: (a) Chemical structure of ormeloxifene. […] Assay was performed on 3 replicates for each treatment and repeated twice.
as §5, §6

U937 cells = assay: Morphology after long ORM treatment, U937 cells; format: cell-based; details: U937, 1 uM ORM, 12 and 15 days
Method: as §1, §2, §3

K562 cells [7] = assay: Real time and semi quantitative PCR of differentiation markers, K562 cells; format: cell-based
Method: 5. Quantitative PCR (Real Time) and semi quantitative PCR Analysis: After induction of cells with ORM for indicated time points cells were harvested and RNA was isolated using Trizol reagent. Trizol was added to 1×10^6 cells for 5 min at room temp. Lysed cells were collected in micro centrifuge tubes and shaken vigorously for 15 sec, and incubated for 3 min at RT. 200 μl of chloroform was added to each sample and incubated yet again for 5 min at RT. Cells were centrifuged at 15,000 rpm for 15 min at 4° C. Supernatant was collected in fresh tube; 1 ml isopropanol was added and incubated for 10 min at RT. Pellet was washed once with 70% ethanol and RNA concentration was quantified. Further, RNA was retro-transcribed into cDNA and subsequently used for quantitative PCR analysis on Roche Light Cycler 480 using SYBR green master mix from Applied Biosystems. Statistical analysis was performed using ΔΔCT method. Reverse transcriptase PCR was done to check the mRNA level expression of GCSFr qualitatively. RT-PCR analysis was performed using standardized PCR protocol on BioRad C1000 Thermal Cycler.

[8] = tested on: HL60, U937 and K562 cells; details: P. Pal et al., Proteomics 2011, read-out: IC50 inducing apoptosis; cited from earlier work
K562 cells [9] = assay: NBT reduction assay, K562 cells; format: cell-based; details: K562, 7.5 uM ORM 24 h and 48 hrs, 1 uM 6 days
Method: 4. NBT assay: The NBT Assay relies on the accumulation of blue black formazan precipitate. The membrane permeable, water soluble, yellow NBT is reduced to blue black formazan by O^−2, which is generated by activated neutrophils/phagocytes, typically by PMA. PMA activates NADPH oxidase by enhancing protein kinase C (PKC) and thus stimulates production of ROS (reactive oxygen species). After induction with 7.5 uM ORM for 24 h and 48 hr and with 1 uM ORM for 6 days cells were incubated in NBT solution for 15 min. at 37° C. Cells were washed with PBS and were resuspended in 500 ul PBS and cytospun on slides and stained with safranin O for 1 min. Number of cells showing blue-purple colouration were counted under microscope.
In order to further confirm the ORM induced differentiation in myeloid leukemia cells, Nitro Blue Tetrazolium (NBT) reduction assay is carried out which is a biochemical assay wherein activated granulocytes can reduce NBT to insoluble purple blue colour precipitates. Further, because ORM induces apoptosis at 7.5 uM in K562 cells; we treated K562 cells with 7.5 uM for 24 h and 48 hrs and 1 uM doses for longer duration, 6 days. Cells were subjected for NBT reduction analysis. […] This further confirmed differentiation inducing potential of ORM.

HL60 cells [10] = assay: FACS flow cytometry for cd11b in HL60 cells (differentiation control); format: cell-based; details: HL60, 1 uM ATRA, 72 hrs
Method: as §4

[11] = K562, 1 uM ORM, 24 and 48 h, real time PCR

In the case of `COc1ccc2c(c1)OC(C)(C)C(c1ccccc1)C2c1ccc(OCCN2CCCC2)cc1` (stereo not drawn) [ORM, 3,4-trans-2,2-dimethyl-3-phenyl-4-p-(beta-pyrrolidinoethoxy)phenyl-7-methoxychroman], the granulocytic/neutrophil like morphology (HL60 cells [1]) is listed as “large number of cells with multilobed nucleus”, the “mutagenic effects of DMBA, CP, MMC and EMS” value (Salmonella) is listed as “can reduce the mutagenic effects” and the overall response rate (advanced breast cancer; both male and female cases (4 male, 75 female)) is listed as 40.5%. The overall response rate (advanced breast cancer; female patients) was 38.7%, the “expression of cd11b surface marker” value [2] was “significant upregulation” and the “expression of cd114 surface marker” value [2] was “significant upregulation”. The “cells expressing cd11b marker” value (K562 cells [3]; K562, 1.0 uM ORM) was “increased percentage of cells expressing CD11b markers”, the “cells expressing cd11b marker” value (K562 cells [3]; K562, 7.5 uM ORM) was “Reduced number of cd11b expressing cells” and the IC50 (HEK293T) was 25 µM. For the same compound, the ROS generation (K562 cells [4]) was “Significant upregulation in ROS generation”, the “morphological changes (Giemsa)” value (K562 cells [5]; K562, 1.0 uM ORM, 12 days) was “differentiated cells having neutrophil like morphology were observed” and the “morphological changes (Giemsa)” value (K562 cells [5]; K562, 5 uM ORM, 72 hrs) was “neutrophil like morphological changes”. For the same compound, the IC50 ([6]; 48 h) was about 7.5 µM, the IC50 ([6]; 48 hrs) was about 7 µM and the granulocytic/neutrophil like morphology (U937 cells) was “large number of cells with multilobed nucleus”. For the same compound, the “C/EBP epsilon mRNA expression” value (K562 cells [7]; [11]) was “increased mRNA expression”, the “C/EBPalpha mRNA expression” value (K562 cells [7]; [11]) was “increased mRNA expression” and the “GCSFr mRNA expression” value (K562 cells [7]; [11]) was “increased mRNA expression”. For the same compound, the “cd11b mRNA expression” value (K562 cells [7]; [11]) was “increased mRNA expression”, the “GCSFr mRNA expression” value (K562 cells [7]; K562, 7.5 uM ORM, 24 h and 48 h, quantitative and semi quantitative PCR) was “modest upregulation” and the “level of GCSFr” value (K562 cells [7]; K562, Reverse transcriptase-PCR (FIG. 4f, g)) was “marked increase”. The IC50 [8] was 7.5 µM and the NBT reduction (K562 cells [9]) was “dramatic increase in NBT reduction”.

For `CC1=C(/C=C/C(C)=C/C=C/C(C)=C/C(=O)O)C(C)(C)CCC1` [ATRA, All-Trans-Retinoic Acid], the “cd11b early myeloid differentiation marker” value (HL60 cells [10]) was “increased”.
